Converted amounts (≈) assume the structure as drawn.
Columns and labels:
Type in all cases: functional
Details in all cases: read-out: ED50 (the source's name)
[1] = tested on: A549; assay: Cytotoxicity against human A549 cells by SRB method
[2] = tested on: SK-OV-3; assay: Cytotoxicity against human SKOV3 cells by SRB method
[3] = tested on: SK-MEL-2; assay: Cytotoxicity against human SK-MEL-2 cells by SRB method
[4] = tested on: XF498; assay: Cytotoxicity against human XF498 cells by SRB method
[5] = tested on: HCT-15; assay: Cytotoxicity against human HCT15 cells by SRB method

Row | Structure (SMILES) | EC50 [1] | EC50 [2] | EC50 [3] | EC50 [4] | EC50 [5]
1 | C=C[C@@](C)(CC[C@H]1C(C)=CC[C@H]2C(C)(C)CCC[C@]12C)O[C@@H]1O[C@@H](C)[C@@H](OC(C)=O)[C@H](O)[C@H]1O | 3.2 µg/mL (≈ 6.69 µM) | 3.4 µg/mL (≈ 7.1 µM) | 3.5 µg/mL (≈ 7.31 µM) | 3.8 µg/mL (≈ 7.94 µM) | 3.1 µg/mL (≈ 6.48 µM)
2 | C=C[C@@](C)(CC[C@H]1C(C)=CC[C@H]2C(C)(C)CCC[C@]12C)O[C@@H]1O[C@@H](C)[C@@H](O)[C@H](O)[C@H]1O | 3.9 µg/mL (≈ 8.93 µM) | 5.7 µg/mL (≈ 13.1 µM) | 4.2 µg/mL (≈ 9.62 µM) | 8.9 µg/mL (≈ 20.4 µM) | 3.2 µg/mL (≈ 7.33 µM)
3 | C=C[C@](C)(O)CC[C@H]1C(=C)[C@H](O)C[C@H]2C(C)(C)CCC[C@]12C | > 5 µg/mL | > 5 µg/mL | > 5 µg/mL | > 5 µg/mL | > 5 µg/mL
4 | C=C[C@@](C)(CC[C@H]1C(C)=CC[C@H]2C(C)(C)CCC[C@]12C)O[C@@H]1O[C@H](C)[C@H](O)[C@H](O)[C@H]1O | 3.5 µg/mL (≈ 8.02 µM) | 3.6 µg/mL (≈ 8.24 µM) | 3.5 µg/mL (≈ 8.02 µM) | 4.2 µg/mL (≈ 9.62 µM) | 3.9 µg/mL (≈ 8.93 µM)
5 | C=C[C@@](C)(CC[C@@H]1[C@@]2(C)CCCC(C)(C)[C@@H]2CC[C@@]1(C)O)O[C@@H]1O[C@H](C)[C@H](O)[C@H](O)[C@H]1O | > 5 µg/mL | > 5 µg/mL | > 5 µg/mL | > 5 µg/mL | > 5 µg/mL
6 | C=C[C@@](C)(CC[C@H]1C(C)=CC[C@H]2C(C)(C)CCC[C@]12C)O[C@@H]1O[C@H](C)[C@H](O)[C@H](OC(C)=O)[C@H]1O | 3.6 µg/mL (≈ 7.52 µM) | 3.8 µg/mL (≈ 7.94 µM) | 3.5 µg/mL (≈ 7.31 µM) | 5.1 µg/mL (≈ 10.7 µM) | 3.8 µg/mL (≈ 7.94 µM)
7 | C=C[C@@](C)(CC[C@@H]1[C@@]2(C)CCCC(C)(C)[C@@H]2CC[C@@]1(C)O)O[C@H]1O[C@H](C)[C@H](O)[C@@H](O)[C@@H]1O | > 5 µg/mL | > 5 µg/mL | > 5 µg/mL | > 5 µg/mL | > 5 µg/mL
8 | C=C[C@@](C)(O)CC[C@@H]1[C@@]2(C)CCCC(C)(C)[C@@H]2CC[C@@]1(C)O | > 5 µg/mL | > 5 µg/mL | > 5 µg/mL | > 5 µg/mL | > 5 µg/mL
9 | C=C[C@](C)(O)CC[C@H]1C(C)=CC[C@H]2C(C)(C)CCC[C@]12C | 2.4 µg/mL (≈ 8.26 µM) | 8.7 µg/mL (≈ 29.9 µM) | 4.4 µg/mL (≈ 15.1 µM) | 9.5 µg/mL (≈ 32.7 µM) | 9.1 µg/mL (≈ 31.3 µM)
10 | C=C[C@@]1(C)CC[C@H]2[C@]3(C)CCC[C@@](C)(C(=O)O)[C@H]3CC[C@]2(C)O1 | > 5 µg/mL | > 5 µg/mL | > 5 µg/mL | > 5 µg/mL | > 5 µg/mL
11 | C=C[C@@](C)(CC[C@H]1C(C)=CC[C@H]2C(C)(C)CCC[C@]12C)O[C@@H]1O[C@H](C)[C@H](OC(C)=O)[C@H](O)[C@H]1O | 3.9 µg/mL (≈ 8.15 µM) | 5.8 µg/mL (≈ 12.1 µM) | 3.4 µg/mL (≈ 7.1 µM) | 8.9 µg/mL (≈ 18.6 µM) | 4.1 µg/mL (≈ 8.57 µM)
12 | COc1cccc2c1C(=O)c1c(O)c3c(c(O)c1C2=O)C[C@@](O)(C(=O)CO)C[C@@H]3O[C@H]1C[C@H](N)[C@H](O)[C@H](C)O1 [DOXORUBICIN] | 0.012 µg/mL (≈ 0.0221 µM) | 0.12 µg/mL (≈ 0.221 µM) | 0.003 µg/mL (≈ 0.00552 µM) | 0.01 µg/mL (≈ 0.0184 µM) | 0.35 µg/mL (≈ 0.644 µM)
13 | COc1cc([C@@H]2c3cc4c(cc3[C@@H](O[C@@H]3O[C@@H]5CO[C@@H](C)O[C@H]5[C@H](O)[C@H]3O)[C@H]3COC(=O)[C@H]23)OCO4)cc(OC)c1O [ETOPOSIDE] | 1.5 µg/mL (≈ 2.55 µM) | 2.7 µg/mL (≈ 4.59 µM) | 0.08 µg/mL (≈ 0.136 µM) | 2.6 µg/mL (≈ 4.42 µM) | 2.2 µg/mL (≈ 3.74 µM)
